Our source for the IC50 values is US10961242B2, “Compounds as autotaxin inhibitors and pharmaceutical compositions comprising the same” (LegoChem Biosciences, Inc., priority 2018, dated 2021).

Where a name gives a salt, the structure may show the parent alone.

Usually IC50 stands for the concentration that gives 50% inhibition.

The assay deals with human ENPP2 (Homo sapiens (Human), UniProt Q13822). Nature of the assay: Inhibitory activity on human ENPP2 (FS-3 assay). The settings on record: human ENPP2, FS-3 substrate, 30 min at 37° C.; read-out: IC50. The format is biochemical. As for the experimental part: Two-fold dilution of each test compound solution (10 μM, 100% dimethyl sulfoxide) is carried out on 96-well V bottom plate (Costar 3363). After ten-fold dilution of each the test compound solution (100% dimethyl sulfoxide) with deionized distilled water, 10 μL of the diluted each mpound solution (10% dimethyl sulfoxide) was aliquoted to a black flat bottom 96-well plate (Costar 3915).

In the case of `O=C(Cn1cc(-c2cnc(NC3Cc4ccccc4C3)nc2)c(CN2CCCNCC2)n1)N1CCc2[nH]nnc2C1` [Compound 90, 2-[3-(1,4-diazepan-1-ylmethyl)-4-{2-[(2,3-dihydro-1H-inden-2-yl)amino]pyrimidin-5-yl}-1H-pyrazol-1-yl]-1-{1H,4H,5H,6H,7H-[1,2,3]triazolo[4,5-c]pyridin-5-yl}ethan-1-one. HCl], the IC50 was determined as 2.6 nM.
To `O=c1[nH]c2ccc(C3=NOC(CN4CCN(c5cnc(NC6Cc7ccccc7C6)nc5)CC4)C3)cc2o1` (centres unmarked) [Compound 31, 6-{5-[(4-{2-[(2,3-dihydro-1H-inden-2-yl)amino]pyrimidin-5-yl}piperazin-1-yl)methyl]-4,5-dihydro-1,2-oxazol-3-yl}-2,3-dihydro-1,3-benzoxazol-2-one] belongs 11.8 nM; to `O=C(Cc1nnc(-c2cnc(NC3Cc4ccccc4C3)nc2)o1)N1CCc2cn[nH]c2C1` [Compound 44, 2-(5-{2-[(2,3-dihydro-1H-inden-2-yl)amino]pyrimidin-5-yl}-1,3,4-oxadiazol-2-yl)-1-{1H,4H,5H,6H,7H-pyrazolo[3,4-c]pyridin-6-yl}ethan-1-one], 16.6 nM.
To `O=C(CN1CCN(c2cnc(NCc3cccc(OC(F)(F)F)c3)nc2)CC1)N1CCc2[nH]nnc2C1` [Compound 21, 1-{1H,4H,5H,6H,7H-[1,2,3]triazolo[4,5-c]pyridin-5-yl}-2-{4-[2-({[3-(trifluoromethoxy)phenyl]methyl}amino)pyrimidin-5-yl]piperazin-1-yl}ethan-1-one] belongs 4.1 nM; to `O=C(Cc1nnc(-c2cnc(NC3Cc4ccccc4C3)nc2)o1)N1CCc2[nH]ncc2C1` [Compound 42, 2-(5-{2-[(2,3-dihydro-1H-inden-2-yl)amino]pyrimidin-5-yl}-1,3,4-oxadiazol-2-yl)-1-{1H,4H,5H,6H,7H-pyrazolo[4,3-c]pyridin-5-yl}ethan-1-one], 8.1 nM; to `Nc1nc2c(s1)CCN(C(=O)Cc1nnc(-c3cnc(NC4Cc5ccccc5C4)nc3)o1)C2` [Compound 43, 1-{2-amino-4H,5H,6H,7H-[1,3]thiazolo[4,5-c]pyridin-5-yl}-2-(5-{2-[(2,3-dihydro-1H-inden-2-yl)amino]pyrimidin-5-yl}-1,3,4-oxadiazol-2-yl)ethan-1-one], 11.2 nM.
To `O=C(Cn1cc(-c2cnc(NC3Cc4ccccc4C3)nc2)c(CCN2CCOCC2)n1)N1CCc2[nH]nnc2C1` [Compound 93, 2-(4-{2-[(2,3-dihydro-1H-inden-2-yl)amino]pyrimidin-5-yl}-3-[2-(morpholin-4-yl)ethyl]-1H-pyrazol-1-yl)-1-{1H,4H,5H,6H,7H-[1,2,3]triazolo[4,5-c]pyridin-5-yl}ethan-1-one] belongs 2.1 nM.
Consider `O=c1[nH]c2ccc(/C(CN3CCN(c4cnc(NC5Cc6ccccc6C5)nc4)CC3)=N\O)cc2o1` [Compound 29, 6-[(1E)-2-(4-{2-[(2,3-dihydro-1H-inden-2-yl)amino]pyrimidin-5-yl}piperazin-1-yl)-1-(hydroxyimino)ethyl]-2,3-dihydro-1,3-benzoxazol-2-one], for which the 50% inhibitory concentration (IC50) turned out to be 3.9 nM.
For `CCN1CCN(Cc2nn(CC(=O)N3CCc4[nH]nnc4C3)cc2-c2cnc(NC3Cc4ccccc4C3)nc2)CC1` [Compound 91, 2-(4-{2-[(2,3-dihydro-1H-inden-2-yl)amino]pyrimidin-5-yl}-3-[(4-ethylpiperazin-1-yl)methyl]-1H-pyrazol-1-yl)-1-{1H,4H,5H,6H,7H-[1,2,3]triazolo[4,5-c]pyridin-5-yl}ethan-1-one], the IC50 worked out at 2.4 nM.
For `O=C(Cc1nnc(-c2ccc(NC3Cc4ccccc4C3)nc2)o1)N1CCc2[nH]nnc2C1` [Compound 36, 2-(5-{6-[(2,3-dihydro-1H-inden-2-yl)amino]pyridin-3-yl}-1,3,4-oxadiazol-2-yl)-1-{1H,4H,5H,6H,7H-[1,2,3]triazolo[4,5-c]pyridin-5-yl}ethan-1-one], the IC50 amounted to 2.9 nM.
Consider `CC(NC(=O)c1cnc(NCc2cccc(OC(F)(F)F)c2)nc1)C(=O)N1CCc2[nH]nnc2C1` (centres unmarked) [Compound 4, N-(1-oxo-1-{1H,4H,5H,6H,7H-[1,2,3]triazolo[4,5-c]pyridin-5-yl}propan-2-yl)-2-({[3-(trifluoromethoxy)phenyl]methyl}amino)pyrimidine-5-carboxamide], for which the IC50 came to 18.9 nM.
As for `O=C(CN1CCc2[nH]nnc2C1)N1CCN(c2cnc(NCc3cccc(OC(F)(F)F)c3)nc2)CC1` [Compound 18], the IC50 turned out to be 3.6 nM.
Take `O=C(Cc1nnc(-c2cnc(NC3Cc4ccccc4C3)nc2)o1)N1CCc2[nH]nnc2C1` [Compound 33, 2-(5-(2-((2,3-dihydro-1H-inden-2-yl)amino)pyrimidin-5-yl)-1,3,4-oxadiazol-2-yl)-1-(1,4,6,7-tetrahydro-5H-[1,2,3]triazolo[4,5-c]pyridin-5-yl) ethan-1-one]: the half-maximal inhibitory concentration (IC50) was 2.4 nM.
With `O=C(Cn1cc(-c2cnc(NC3Cc4ccccc4C3)nc2)c(CN2CCN(CC(F)F)CC2)n1)N1CCc2[nH]nnc2C1` [Compound 92, 2-(3-{[4-(2,2-difluoroethyl)piperazin-1-yl]methyl}-4-{2-[(2,3-dihydro-1H-inden-2-yl)amino]pyrimidin-5-yl}-1H-pyrazol-1-yl)-1-{1H,4H,5H,6H,7H-[1,2,3]triazolo[4,5-c]pyridin-5-yl}ethan-1-one], the IC50 was 2.3 nM.
To `O=C(Cc1nnc(-c2cnc(NC3Cc4ccccc4C3)nc2)o1)N1CCc2[nH]c(=O)ccc2C1` [Compound 39, 6-[2-(5-{2-[(2,3-dihydro-1H-inden-2-yl)amino]pyrimidin-5-yl}-1,3,4-oxadiazol-2-yl)acetyl]-1,2,5,6,7,8-hexahydro-1,6-naphthyridin-2-one] belongs 10.6 nM; to `CCc1nn(CC(=O)N2CCN(C(=O)CO)CC2)cc1-c1cnc(NC2Cc3ccccc3C2)nc1` [Compound 94, 1-{4-[2-(4-{2-[(2,3-dihydro-1H-inden-2-yl)amino]pyrimidin-5-yl}-3-ethyl-1H-pyrazol-1-yl)acetyl]piperazin-1-yl}-2-hydroxyethan-1-one], 2.3 nM; to `O=C(Cc1nnc(-c2cnc(NC3Cc4ccccc4C3)nc2)o1)N1CCc2[nH]c(=O)[nH]c2C1` [Compound 40, 5-[2-(5-{2-[(2,3-dihydro-1H-inden-2-yl)amino]pyrimidin-5-yl}-1,3,4-oxadiazol-2-yl)acetyl]-1H,2H,3H,4H,5H,6H,7H-imidazo[4,5-c]pyridin-2-one], 10.1 nM.
To `O=C(CN1CCc2[nH]nnc2C1)N1CCN(c2cnc(NC3Cc4ccccc4C3)nc2)CC1` [Compound 17, 1-(4-{2-[(2,3-dihydro-1H-inden-2-yl)amino]pyrimidin-5-yl}piperazin-1-yl)-2-{1H,4H,5H,6H,7H-[1,2,3]triazolo[4,5-c]pyridin-5-yl}ethan-1-one] belongs 3.4 nM; to `O=C1O[C@@H](CN2CCN(c3cnc(NC4Cc5ccccc5C4)nc3)CC2)CN1c1ccc2[nH]c(=O)oc2c1` [Compound 26, 6-[(5S)-5-[(4-{2-[(2,3-dihydro-1H-inden-2-yl)amino]pyrimidin-5-yl}piperazin-1-yl)methyl]-2-oxo-1,3-oxazolidin-3-yl]-2,3-dihydro-1,3-benzoxazol-2-one], 13.1 nM.
To `O=C(CN1CCN(c2cnc(NC3Cc4ccccc4C3)nc2)CC1)c1ccc2[nH]c(=O)oc2c1` [Compound 28, 6-[2-(4-{2-[(2,3-dihydro-1H-inden-2-yl)amino]pyrimidin-5-yl}piperazin-1-yl)acetyl]-2,3-dihydro-1,3-benzoxazol-2-one] belongs 3.1 nM; to `O=C(Cc1nnc(-c2cnc(NC3Cc4ccccc4C3)nc2)o1)N1CCc2nc[nH]c2C1` [Compound 38, 2-(5-{2-[(2,3-dihydro-1H-inden-2-yl)amino]pyrimidin-5-yl}-1,3,4-oxadiazol-2-yl)-1-{3H,4H,5H,6H,7H-imidazo[4,5-c]pyridin-5-yl}ethan-1-one], 4 nM.
On to `O=C(CCc1ccc2[nH]c(=O)oc2c1)N1CCC(c2cnc(NC3Cc4ccccc4C3)nc2)CC1` [Compound 16, 6-[3-(4-{2-[(2,3-dihydro-1H-inden-2-yl)amino]pyrimidin-5-yl}piperidin-1-yl)-3-oxopropyl]-2,3-dihydro-1,3-benzoxazol-2-one], for which the IC50 is 2.2 nM.
As for `O=C(NCCC(=O)N1CCc2[nH]nnc2C1)c1cnc(NC2Cc3ccccc3C2)nc1` [Compound 1, 2-[(2,3-dihydro-1H-inden-2-yl)amino]-N-(3-oxo-3-{1H,4H,5H,6H,7H-[1,2,3]triazolo[4,5-c]pyridin-5-yl}propyl)pyrimidine-5-carboxamide], the figure is 3.3 nM; as for `O=C(c1cnc(NCc2cccc(OC(F)(F)F)c2)nc1)N1CCC2(CC1)CC(CN1CCc3[nH]nnc3C1)=NO2` [Compound 8, 5-(3-{1H,4H,5H,6H,7H-[1,2,3]triazolo[4,5-c]pyridin-5-ylmethyl}-1-oxa-2,8-diazaspiro[4,5]dec-2-ene-8-carbonyl)-N-{[3-(trifluoromethoxy)phenyl]methyl}pyrimidin-2-amine], 3.5 nM.
As to `O=C(NCC(=O)N1CCc2[nH]nnc2C1)c1cnc(NCc2cccc(OC(F)(F)F)c2)nc1` [Compound 3, N-(2-oxo-2-{1H,4H,5H,6H,7H-[1,2,3]triazolo[4,5-c]pyridin-5-yl}ethyl)-2-({[3-(trifluoromethoxy)phenyl]methyl}amino)pyrimidine-5-carboxamide], the IC50 stood at 14.3 nM.
To `O=C(CCN1CCN(c2cnc(NC3Cc4ccccc4C3)nc2)CC1)N1CCc2[nH]nnc2C1` [Compound 23] belongs 6.8 nM.
